# From patent US12569494B2, “Compositions and methods to promote thymic regeneration” (Fred Hutchinson Cancer Center, priority 2018, dated 2026)
# Assays:
# [1] = system: Thymic dendritic cells (DCs); assay: Il-12p40 / IL-23 expression by qPCR in thymic dendritic cells (DCs); assay type: cell-based, C57BL/6 mice; settings: 50 μM Rho GTPase inhibitor, 20 h overnight, qPCR (FIG. 7B)
# Protocol: (§1) FIGS. 7A, 7B. Rho GTPase inhibition, using several small molecule inhibitors, promotes the expression of Bmp4 and the II12p40 subunit of IL-23. Ex-vivo ECs (exECs) were generated from FACS purified ECs from the thymus and transduced with lentivirus containing the adenoviral gene E4orf1, as described here Proc Natl Acad Sci USA. 2008 Dec. 9; 105(49):19288-93. The exECs were cultured in Advanced DMEM-F12 (Gibco Life Technologies 12634-028) with 20% FBS, 10 mM HEPES buffer, 1% Glutamax (Life Technologies 35050061), 1% Pen Strep, 1% Non-Essential Amino Acids (Life Technologies 11140050), 50 μg/ml Endothelial cell supplement (Alfa Aesar J64516, BT-023), 5 μM SB431542 (R&D Systems 1614), 20 ng/ml FGF (Peprotech 100-18B), 10 ng/ml VEGF (Peprotech 450-32) at 37° C., 5% O2 and 5% CO2. […] Bmp4 and II-12p40 expression were determined by qPCR (exECs, n=3-6 wells from 2 separate experiments; DCs, n=3 mice).
# (§2) FIGS. 10A, 10B: In vitro treatment with a synthetic miR29c mimic reduces the expression of Bmp4 & IL-23, in ECs and DCs, respectively. exECs and DCs were generated and maintained as described in FIGS. 7A, 7B. […] Bmp4 and IL-23 expression were determined by qPCR (n=3).
# Ex-vivo ECs (exECs) = assay: Bmp4 expression by qPCR in ex-vivo thymic endothelial cells (exECs); assay type: cell-based, mice; settings: 50 μM Rho GTPase inhibitor, 20 h overnight, qPCR (FIG. 7A)
# Protocol: as §1, §2
# ECs = assay: BMP4 expression in ECs after ATP; assay type: cell-based; settings: NF-kB independent manner
# exECs = assay: miR29 family expression by qPCR in exECs after Rac1,2,3 inhibition; assay type: cell-based, mice; settings: 50 μM inhibitor, qPCR (FIG. 11)
# Protocol: FIGS. 7A, 7B. Rho GTPase inhibition, using several small molecule inhibitors, promotes the expression of Bmp4 and the II12p40 subunit of IL-23. Ex-vivo ECs (exECs) were generated from FACS purified ECs from the thymus and transduced with lentivirus containing the adenoviral gene E4orf1, as described here Proc Natl Acad Sci USA. 2008 Dec. 9; 105(49):19288-93. The exECs were cultured in Advanced DMEM-F12 (Gibco Life Technologies 12634-028) with 20% FBS, 10 mM HEPES buffer, 1% Glutamax (Life Technologies 35050061), 1% Pen Strep, 1% Non-Essential Amino Acids (Life Technologies 11140050), 50 μg/ml Endothelial cell supplement (Alfa Aesar J64516, BT-023), 5 μM SB431542 (R&D Systems 1614), 20 ng/ml FGF (Peprotech 100-18B), 10 ng/ml VEGF (Peprotech 450-32) at 37° C., 5% O2 and 5% CO2. Thymic dendritic cells (DCs) were obtained from the thymus of 6 week old C57BL/6 mice, where post enzymatic digestion CD11c+ cells were isolated using magnetic beads (Miltenyi Biotech 130-108-338), and cultured in DMEM plus 10% FBS and 1% PenStrep at 37° C., 21% O2 and 5% CO2. The exECs and DCs were separately treated with 50 μM of the individual Rho GTPase inhibitors: RhoA (Millipore/Sigma, Rhosin, CAS 1173671-63-0, 555460-25MG), ROCK (TC-S 700, Tocris, 4961), Rac1,2,3 (Tocris, EHT 1864, 2161), and Cdc42 (Millipore/Sigma, CDC42 Inhibitor III, ZCL278, 500503) for 20 h overnight before being lysed and prepared for RNA extraction. Bmp4 and II-12p40 expression were determined by qPCR (exECs, n=3-6 wells from 2 separate experiments; DCs, n=3 mice).
# FIG. 11. miR29c expression is reduced after Rac1 inhibition in ECs. exECs were treated with 50 μM Rac1,2,3 (Tocris, EHT 1864, 2161) inhibitor as described in FIGS. 7A, 7B. cDNA was prepared from isolated RNA using the Taqman Advanced miRNA cDNA Synthesis kit (Thermo Fisher A28007), and relative miR29c expression was assessed by qPCR (primers from Thermo Fisher A25576).
Structure (SMILES),iI-12p40 expression [1],Bmp4 expression (Ex-vivo ECs (exECs)),BMP4 expression (ECs),miR29c expression (exECs; compared with untreated),miR29a levels (exECs),miR29b levels (exECs)
"Cl.N[C@H](Cc1c[nH]c2ccccc12)C(=O)N/N=C/c1ccc2nccnc2c1 [Rhosin, D-Tryptophan (2E)-2-(6-quinoxalinylmethylene)hydrazide hydrochloride]",significantly upregulated,significantly upregulated,–,–,–,–
Nc1ncnc2c1ncn2[C@@H]1O[C@H](COP(=O)(O)OP(=O)(O)OP(=O)(O)O)[C@@H](O)[C@H]1O [ATP],–,–,induces,–,–,–
"Cl.Cl.O=c1cc(CN2CCOCC2)occ1OCCCCCSc1ccnc2cc(C(F)(F)F)ccc12 (racemic) [EHT 1864, 5-(5-(7-(Trifluoromethyl)quinolin-4-ylthio)pentyloxy)-2-(morpholinomethyl)-4H-pyran-4-one dihydrochloride]",significantly upregulated,significantly upregulated,–,significantly reduced,not reduced,not reduced
